Test results from ChEMBL document CHEMBL1154899, “Synthesis and biological evaluation of caffeic acid 3,4-dihydroxyphenethyl ester” (J Nat Prod, 2010).

Experiments:
Type in all cases: functional
NCI-H23 [1] = assay: Antiproliferative activity against human NCI-H23 cells assessed as cell growth at 50 uM by SRB assay; conditions: read-out: Activity
A498 = assay: Antiproliferative activity against human A498 cells assessed as cell growth at 50 uM by SRB assay; conditions: read-out: Activity
K562 = assay: Antiproliferative activity against human K562 cells assessed as cell growth at 5 uM by SRB assay; conditions: read-out: Activity
EKVX = assay: Antiproliferative activity against human EKVX cells assessed as cell growth at 500 uM by SRB assay; conditions: read-out: Activity
SK-MEL-5 = assay: Antiproliferative activity against human SK-MEL-5 cells by SRB assay
UO-31 [2] = assay: Antiproliferative activity against human UO31 cells assessed as cell growth at 5 mM by SRB assay; conditions: read-out: Activity
DU-145 = assay: Antiproliferative activity against human DU145 cells by SRB assay
RXF 393 = assay: Antiproliferative activity against human RXF393 cells assessed as cell growth at 50 uM by SRB assay; conditions: read-out: Activity
T47D [3] = assay: Antiproliferative activity against human T47D cells assessed as cell growth at 50 uM by SRB assay; conditions: read-out: Activity
UO-31 [4] = assay: Antiproliferative activity against human UO31 cells assessed as cell growth at 0.5 uM by SRB assay; conditions: read-out: Activity
OVCAR-4 [5] = assay: Antiproliferative activity against human OVCAR4 cells assessed as cell growth at 5 mM by SRB assay; conditions: read-out: Activity
UO-31 [6] = assay: Antiproliferative activity against human UO31 cells by SRB assay
U-251 = assay: Antiproliferative activity against human U251 cells assessed as cell growth at 500 uM by SRB assay; conditions: read-out: Activity
SF-268 [7] = assay: Antiproliferative activity against human SF268 cells assessed as cell growth at 500 uM by SRB assay; conditions: read-out: Activity
NCI-H322M = assay: Antiproliferative activity against human NCI-H322M cells by SRB assay
SK-OV-3 [8] = assay: Antiproliferative activity against human SKOV3 cells assessed as cell growth at 50 uM by SRB assay; conditions: read-out: Activity
BT-549 = assay: Antiproliferative activity against human BT549 cells assessed as cell growth at 0.5 uM by SRB assay; conditions: read-out: Activity
MDA-MB-435 = assay: Antiproliferative activity against human MDA-MB-435 cells assessed as cell growth at 5 uM by SRB assay; conditions: read-out: Activity
SK-MEL-2 = assay: Antiproliferative activity against human SK-MEL-2 cells assessed as cell growth at 50 uM by SRB assay; conditions: read-out: Activity
NCI-H23 [9] = assay: Antiproliferative activity against human NCI-H23 cells assessed as cell growth at 5 uM by SRB assay; conditions: read-out: Activity
MOLT-4 = assay: Antiproliferative activity against human MOLT4 cells assessed as cell growth at 50 uM by SRB assay; conditions: read-out: Activity
OVCAR-5 = assay: Antiproliferative activity against human OVCAR5 cells by SRB assay
NCI/ADR-RES = assay: Antiproliferative activity against human NCI/ADR-RES cells assessed as cell growth at 500 uM by SRB assay; conditions: read-out: Activity
UACC-62 [10] = assay: Antiproliferative activity against human UACC62 cells by SRB assay
SF-268 [11] = assay: Antiproliferative activity against human SF268 cells assessed as cell growth at 50 uM by SRB assay; conditions: read-out: Activity
NCI-H522 = assay: Antiproliferative activity against human NCI-H522 cells assessed as cell growth at 5 mM by SRB assay; conditions: read-out: Activity
[12] = Antiproliferative activity against human […] cells assessed as cell growth at 5 uM by SRB assay; conditions: read-out: Activity
SNB-19 = assay: Antiproliferative activity against human SNB19 cells assessed as cell growth at 50 uM by SRB assay; conditions: read-out: Activity
UACC-62 [13] = assay: Antiproliferative activity against human UACC62 cells assessed as cell growth at 50 uM by SRB assay; conditions: read-out: Activity
SK-OV-3 [14] = assay: Antiproliferative activity against human SKOV3 cells assessed as cell growth at 500 uM by SRB assay; conditions: read-out: Activity
SK-MEL-28 = assay: Antiproliferative activity against human SK-MEL-28 cells assessed as cell growth at 0.5 uM by SRB assay; conditions: read-out: Activity
NCI-H460 = assay: Antiproliferative activity against human NCI-H460 cells by SRB assay
SR = assay: Antiproliferative activity against human SR cells assessed as cell growth at 50 uM by SRB assay; conditions: read-out: Activity
T47D [15] = assay: Antiproliferative activity against human T47D cells assessed as cell growth at 0.5 uM by SRB assay; conditions: read-out: Activity
OVCAR-4 [16] = assay: Antiproliferative activity against human OVCAR4 cells assessed as cell growth at 0.5 uM by SRB assay; conditions: read-out: Activity
KM12 = assay: Antiproliferative activity against human KM12 cells by SRB assay
TK-10 = assay: Antiproliferative activity against human TK10 cells assessed as cell growth at 500 uM by SRB assay; conditions: read-out: Activity
SF-539 = assay: Antiproliferative activity against human SF539 cells assessed as cell growth at 0.5 uM by SRB assay; conditions: read-out: Activity
OVCAR-8 = assay: Antiproliferative activity against human OVCAR8 cells by SRB assay
NCI-H23 [17] = assay: Antiproliferative activity against human NCI-H23 cells assessed as cell growth at 0.5 uM by SRB assay; conditions: read-out: Activity
[18] = read-out: LC50 (the source's name)
[19] = read-out: pLC50 (the source's name) (converted)

For `O=C(/C=C/c1ccc(O)c(O)c1)OCCc1ccc(O)c(O)c1`, the growth at 50 µM (NCI-H23 [1]) was 89%, the growth at 50 µM (A498) was 95% and the growth at 5 µM (K562) was 95%. The growth at 500 µM (EKVX) was 78%, the GI50 (SK-MEL-5; read-out: GI50) was 8.12 µM and the CC50 (SK-MEL-5; [18]) was > 50 µM. The TGI (SK-MEL-5; read-out: TGI) was 47.7 µM, the GI50 (SK-MEL-5; read-out: pGI50 (converted)) was 8.13 µM and the CC50 (SK-MEL-5; [19]) was > 50.1 µM. The TGI (SK-MEL-5; read-out: pTGI (converted)) was 47.9 µM, the growth at 5000 µM (UO-31 [2]) was -14% and the GI50 (DU-145; read-out: GI50) was 9.75 µM. The CC50 (DU-145; [18]) was > 50 µM, the GI50 (DU-145; read-out: pGI50 (converted)) was 9.77 µM and the CC50 (DU-145; [19]) was > 50.1 µM. It also gave a TGI (DU-145; read-out: pTGI (converted)) of 30.2 µM, a growth at 50 µM (RXF 393) of 135% and a growth at 50 µM (T47D [3]) of 93%. The growth at 0.5 µM (UO-31 [4]) was 98%, the growth at 5000 µM (OVCAR-4 [5]) was 21% and the GI50 (UO-31 [6]; read-out: GI50) was 1.75 µM. For the same compound, the CC50 (UO-31 [6]; [18]) was > 50 µM, the TGI (UO-31 [6]; read-out: TGI) was 21.1 µM and the GI50 (UO-31 [6]; read-out: pGI50 (converted)) was 1.66 µM. The CC50 (UO-31 [6]; [19]) was > 50.1 µM, the TGI (UO-31 [6]; read-out: pTGI (converted)) was 20.9 µM and the growth at 500 µM (U-251) was 65%. For the same compound, the growth at 500 µM (SF-268 [7]) was 57%, the GI50 (NCI-H322M; read-out: GI50) was 28.1 µM and the CC50 (NCI-H322M; [18]) was > 50 µM. The TGI (NCI-H322M; read-out: TGI) was > 50 µM, the GI50 (NCI-H322M; read-out: pGI50 (converted)) was 28.2 µM and the CC50 (NCI-H322M; [19]) was > 50.1 µM. For the same compound, the TGI (NCI-H322M; read-out: pTGI) was > 50.1 µM, the growth at 50 µM (SK-OV-3 [8]) was 88% and the growth at 0.5 µM (BT-549) was 94%. For the same compound, the growth at 5 µM (MDA-MB-435) was 92%, the growth at 50 µM (SK-MEL-2) was 91% and the growth at 5 µM (NCI-H23 [9]) was 95%. For the same compound, the growth at 50 µM (MOLT-4) was 89%, the GI50 (OVCAR-5; read-out: GI50) was > 50 µM and the CC50 (OVCAR-5; [18]) was > 50 µM. The TGI (OVCAR-5; read-out: TGI) was > 50 µM, the GI50 (OVCAR-5; read-out: pGI50 (converted)) was > 50.1 µM and the CC50 (OVCAR-5; [19]) was > 50.1 µM. For the same compound, the TGI (OVCAR-5; read-out: pTGI) was > 50.1 µM, the growth at 500 µM (NCI/ADR-RES) was 78% and the GI50 (UACC-62 [10]; read-out: GI50) was 5.33 µM. The CC50 (UACC-62 [10]; [18]) was > 50 µM, the TGI (UACC-62 [10]; read-out: TGI) was 38.3 µM and the GI50 (UACC-62 [10]; read-out: pGI50 (converted)) was 5.37 µM. For the same compound, the CC50 (UACC-62 [10]; [19]) was > 50.1 µM, the TGI (UACC-62 [10]; read-out: pTGI (converted)) was 38 µM and the growth at 50 µM (SF-268 [11]) was 85%. The growth at 5000 µM (NCI-H522) was -30%, the growth at 5 µM [12] was 70% and the growth at 50 µM (SNB-19) was 94%. The growth at 50 µM (UACC-62 [13]) was 84%, the growth at 500 µM (SK-OV-3 [14]) was 79% and the growth at 0.5 µM (SK-MEL-28) was 97%. The GI50 (NCI-H460) was 14.8 µM, the CC50 (NCI-H460; [18]) was > 50 µM and the TGI (NCI-H460; read-out: TGI) was > 50 µM. The CC50 (NCI-H460; [19]) was > 50.1 µM, the TGI (NCI-H460; read-out: pTGI) was > 50.1 µM and the growth at 50 µM (SR) was 77%. It also gave a growth at 0.5 µM (T47D [15]) of 98%, a growth at 0.5 µM (OVCAR-4 [16]) of 99% and a GI50 (KM12; read-out: GI50) of 7.92 µM. For the same compound, the CC50 (KM12; [18]) was > 50 µM, the TGI (KM12; read-out: TGI) was > 50 µM and the GI50 (KM12; read-out: pGI50 (converted)) was 7.94 µM. For the same compound, the CC50 (KM12; [19]) was > 50.1 µM, the TGI (KM12; read-out: pTGI) was > 50.1 µM and the growth at 500 µM (TK-10) was 81%. The growth at 0.5 µM (SF-539) was 90%, the GI50 (OVCAR-8; read-out: GI50) was 9.32 µM and the CC50 (OVCAR-8; [18]) was > 50 µM. The TGI (OVCAR-8; read-out: TGI) was > 50 µM, the GI50 (OVCAR-8; read-out: pGI50 (converted)) was 9.33 µM and the CC50 (OVCAR-8; [19]) was > 50.1 µM. For the same compound, the TGI (OVCAR-8; read-out: pTGI) was > 50.1 µM and the growth at 0.5 µM (NCI-H23 [17]) was 90%.
